Experimental data as given in US11738099B2, “Molecular probes and methods of use” (CASE WESTERN RESERVE UNIVERSITY, priority 2014, dated 2023).
Where no end group is shown, it is not given here.

Columns and labels:
MCF-7 cells = assay: ZD2-Cy5.5 binding, 3D culture of MCF-7 cells; format: cell-based; settings: 250 nM, 1 h, confocal microscopy
Method: (§1) MDA-MB-231, Hs578T, BT549, MCF-7, ZR-75-1 and T47D were acquired from American Type Culture Collection (ATCC, Rockville, Md., USA). MDA-MB-231 cells were maintained in Dulbecco Modified Eagle Medium (DMEM) supplemented with 10% fetal bovine serum (FBS) and 5% penicillin/streptomycin (pen/strep). Hs578T, BT549 and MCF-7 cells were maintained in Eagle Minimum Essential Medium (EMEM) supplemented with 0.01 mg/ml human recombinant insulin, 10% FBS and 5% pen/strep. ZR-75-1 and T47D were maintained in RPMI 1640 medium supplemented with 10% FBS and 5% pen/strep. Three-dimensional culture of cells was achieved by an “on-top” matrigel method reported previously. Briefly, on a glass-bottom plate a thick layer of matrigel was coated, followed by plating MDA-MB-231 or MCF-7 cells on top of the matrigel. Once 3D sphere or clusters formed, ZD2-Cy5.5 was added to the medium to the final concentration of 250 nM. Binding of ZD2-Cy5.5 to the 3D spheres was evaluated using a confocal laser scanning microscope (Olympus Corporation, Tokyo, Japan) after culturing for 1 h.

LNCaP cell clusters = assay: ZD2-Cy5.5 binding, 3D matrigel culture of LNCaP cells; format: cell-based; settings: 250 nM, 1 h
Method: (§2) All reagents for chemical synthesis were purchased from Sigma Aldrich unless stated otherwise. PC3 and LNCaP cells were purchased from American Type Culture Collection (ATCC, Manassas, Va., USA), and grown in RPMI medium (Thermo Fisher Scientific, Waltham, Mass., USA) supplemented with 10% Fetal Bovine Serum (FBS) and 1% Penn/Strep at 37° C. in 5% CO2. To construct GFP-expressing cell lines, cells were transfected with lentivirus as previously reported. Matrigel 3D culture was formed following the 3D “on-top” protocol. Briefly, a glass-bottom plate was coated with a thick layer of freshly thawed matrigel, followed by solidifying the matrigel at 37° C. for 15-30 min. Cells were then plated onto the coated plate with medium containing 5% matrigel. The culture was maintained for at least 4-6 days and then ZD2-Cy5.5 (250 nM) was added to the culture medium. After 1 h, cells in the 3D matrigel were imaged with confocal laser fluorescence microscopy.

MCF-7 tumours [1] = assay: Fluorescence imaging of tumour sections, MCF-7 model; settings: mouse, in vivo
Method: (§3) To determine the distribution of ZD2-Cy5.5 in the major organs and tumours, 10 nmol ZD2-Cy5.5 was injected in tumour-bearing mice through the tail vein. At 3 h after injection, mice were sacrificed. Tumours and organs were collected and imaged with CSi Maestro imaging system (Woburn, Mass., USA) using the deep red filter sets (exposure time: 1000 ms).
(§4) Tumours were embedded in Optimum Cutting Temperature Compound (OCT) and kept froze in −80° C. Tumour tissues sectioned at the thickness of 5 μm were then fixed and permeabilized with cold acetone. BSA (1%) in PBS was used to block the tissue at room temperature for 1 hour. Mouse anti-EDB-FN antibody, BC-1 (ab154210, Abcam, Cambridge, Mass., USA), diluted with 1% BSA (1:500) was applied to the tissue and incubated at room temperature for 1 hour. After extensive washing, AlexFluor594-conjugated anti-mouse IgG antibody (1:500) (Invitrogen, Eugene, Oreg., USA) was applied and incubated with the tissue for 1 hour. Tissue sections were then counterstained with Prolong Gold antifade mounting medium with DAPI (Invitrogen). Confocal laser scanning microscopy (FV1000, Olympus, Japan) was used to acquire the fluorescence images of the tissues. H&E staining of the tissue was performed at the tissue resource core of Case Western Reserve University. H&E staining images were acquired using the Virtual slide microscope VS120 (Olympus).

MDA-MB-231 tumours [2] = assay: Fluorescence imaging of tumours, organs and sections, MDA-MB-231 model; format: in vivo, mouse
Method: as §3, §4

PC3 spheroids = assay: ZD2-Cy5.5 binding, 3D matrigel culture of PC3 cells; format: cell-based; settings: 250 nM, 1 h
Method: as §2

MDA-MB-231 spheres = assay: ZD2-Cy5.5 binding, 3D culture of MDA-MB-231 cells; format: cell-based; settings: 250 nM, 1 h, confocal microscopy
Method: as §1

[3] = tested on: PC3 prostate tumor xenografts; assay: Ex vivo fluorescence imaging, PC3 mouse model; format: in vivo; settings: 3 hours after intravenous injection, 10 nmol
Method: (§5) After fluorescence imaging of the organs, they were embedded in O.C.T and sectioned at 5 μm thickness, and mounted on to glass slides. The slides were fixed and permeabilized with cold acetone, followed by blocking with 1% BSA for 1 hour. DAPI or EDB-FN specific antibody, BC-1 (Abcam, Cambridge, Mass.), were applied subsequently for staining. Unbound antibodies were washed with TBS-T (0.1%). Alexa Fluor 594-conjugated goat anti-mouse IgG H&L (Abcam) was used as the secondary antibody. Prolong Gold antifade solution (Invitrogen, Grand Island, N.Y.), was used to cover the slides. The stained tissue sections were imaged using confocal laser scanning microscopy.
(§6) The targeted binding of ZD2-Cy5.5 to the prostate tumor was assessed ex vivo using Maestro FLEX In vivo Imaging System (Caliper Life Sciences, Hopkinton, Mass.) using a red filter set (spectral range of 630-910 nm, 1000 ms exposure time). ZD2-Cy5.5 (10 nmol) was administered to study the in vivo distribution of ZD2-based probes. At 3 h post-injection, the mice were sacrificed to image the tumors and the organs.

[4] = tested on: LNCaP prostate tumor xenografts; assay: Ex vivo fluorescence imaging and sections, LNCaP mouse model; format: in vivo; settings: confocal microscopy
Method: as §5, §6

[5] = tested on: Hs578T and ZR-75-1 xenografts; assay: MRI at 7 T, mice bearing Hs578T and ZR-75-1 xenografts; format: in vivo, mouse; settings: 20 μmol Gd/kg, 30 min
Method: (§7) Female athymic nude mice were purchased from the Case Comprehensive Cancer Center and housed in the Case Center Imaging Research. All animal experiments were carried out according to a protocol approved by the IACUC of Case Western Reserve University. To initiate tumour xenografts, cells cultured in 150 mm dishes were trypsinized and centrifuged. Cell pellets from each dish were suspended in 100 μL PBS and reconstituted with Corning Matrigel Matrix High Concentration (Corning, Corning, N.Y., USA) to a concentration of 2×10^7 cells/mL on ice. The suspended cells in 100 μL matrigel solution were injected subcutaneously in the flank of mice (4-6 weeks) using a 19-gauge needle. After injection, a plug in flank was formed due to matrigel gelling. Tumours were allowed to grow for at least a month before imaging. […]
(§8) MR images of the mice bearing MDA-MB-231 or MCF-7 tumour xenografts were acquired on an Aspect M3 small animal MRI scanner (1 Tesla). […] Images were exported into DICOM data, which were then processed and analyzed using Matlab (Natick, Mass., USA). The contrast-to-noise ratio of tumours in the images was calculated as the difference between tumour mean intensity minus muscle mean intensity, divided by the noise. […] The images were similarly analyzed as described above.

MCF-7 tumours [6] = assay: MRI at 1.0 Tesla, MCF-7 tumours; format: in vivo, mouse; settings: 1.67 μmol/kg i.v.
Method: MR images of the mice bearing MDA-MB-231 or MCF-7 tumour xenografts were acquired on an Aspect M3 small animal MRI scanner (1 Tesla). Mice were placed on a holder with the temperature maintained at 37° C., with isoflurane/oxygen mixture supplied to the mice through a nose cone. A thin catheter filled with PBS was connected to the tail vein of the mice. After mice were placed in the coil, a pilot scan was performed to adjust mice to the proper location in the coil. An axial T1-weighted sequence (TR=500 ms; TE=9 ms; Flip angle=90°; Field of view=3 cm×3 cm; Matrix size=128×128×8; slice thickness=2 mm; inter-slice distance=1 mm) was then used to acquire the images of the tumours before and 10 min, 20 min, and 30 min after contrast injection. Images were exported into DICOM data, which were then processed and analyzed using Matlab (Natick, Mass., USA). The contrast-to-noise ratio of tumours in the images was calculated as the difference between tumour mean intensity minus muscle mean intensity, divided by the noise. Three-dimensional images of mice were acquired using a gradient echo T1-weighted sequence with the following parameters: TR=17 ms; TE=6 ms; Flip angle=15°; Field of view=3.5 cm×8 cm; Matrix size=128×512×16; slice thickness=1.5 mm. […] The images were similarly analyzed as described above.

[7] = In vitro transmetallation assay with human serum; format: in vitro ADME; settings: 2 h
Method: We performed in vitro transmetallation assay according to the protocol reported previously. Briefly, ZD2-Gd3N@C80 (0.02 mM Gd/mL) was incubated with human serum for 2 h. According to previous reports, transmetallation of Gd with Zn^2+, Cu^2+ and Ca^2+ bound in serum proteins occurs rapidly and 2 h is sufficient to study the equilibrium of transmetallation. The mixtures were then centrifuged at 4000 rpm and 25° C. for 150 min using CF-10 centrifugal filters (molecular weight cutoff 10 kDa). Metal ions in both the upper reservoir and the filtrates were quantified by ICP-OES. […] The degree of transmetallation of ZD2-Gd3N@C80 with Zn^2+, Cu^2+ and Ca^2+ ions in serum was evaluated using the percentage of Zn^2+, Cu^2+ and Ca^2+ ions filtered through the membrane, calculated as Transmetallation (%)=(concentration of ions in the filtrates)/(total ion concentrations before filtration)×100. Human serum was used a control.

Size by TEM and DLS = format: physicochemical
[8] = tested on: BT549 and T47D xenografts; assay: MRI at 7 T, mice bearing BT549 and T47D xenografts; format: in vivo, mouse; settings: 20 μmol Gd/kg, 30 min
Method: as §7, §8

[9] = Relaxivity measurement of gadofullerenes; format: physicochemical
Method: Infrared spectrum of ZD2-Gd3N@C80 was performed using the Cary 630 FTIR Spectrometer (Agilent Technologies, Santa Clara, Calif., USA). Lyophilized hydroxylated Gd3N@C80 or ZD2-Gd3N@C80 was reconstituted to a serial dilution in water. The solutions were pipetted in NMR tubes (500 μL in each tube), and placed in a relaxometer (Bruker) at 1.5 Tesla. For relaxivity measurement at 7 Tesla, NMR tubes containing contrast agent solutions were bundled and placed in a mouse coil in a horizontal 7 Tesla Bruker scanner (Bruker Biospin Co., Billerica, Mass.). T, maps of the solutions were acquired using a previously reported method^29. T1 and T2 values of each solution were measured. The r1 and r2 relaxivities of the contrast agent were calculated as the slope of the plot of 1/T1 and 1/T2 relaxation rates against the concentrations.

MDA-MB-231 tumours [10] = assay: MRI at 1.0 Tesla, MDA-MB-231 tumours; format: in vivo, mouse
Method: MR images of the mice bearing MDA-MB-231 or MCF-7 tumour xenografts were acquired on an Aspect M3 small animal MRI scanner (1 Tesla). Mice were placed on a holder with the temperature maintained at 37° C., with isoflurane/oxygen mixture supplied to the mice through a nose cone. A thin catheter filled with PBS was connected to the tail vein of the mice. After mice were placed in the coil, a pilot scan was performed to adjust mice to the proper location in the coil. An axial T1-weighted sequence (TR=500 ms; TE=9 ms; Flip angle=90°; Field of view=3 cm×3 cm; Matrix size=128×128×8; slice thickness=2 mm; inter-slice distance=1 mm) was then used to acquire the images of the tumours before and 10 min, 20 min, and 30 min after contrast injection. Images were exported into DICOM data, which were then processed and analyzed using Matlab (Natick, Mass., USA). The contrast-to-noise ratio of tumours in the images was calculated as the difference between tumour mean intensity minus muscle mean intensity, divided by the noise. Three-dimensional images of mice were acquired using a gradient echo T1-weighted sequence with the following parameters: TR=17 ms; TE=6 ms; Flip angle=15°; Field of view=3.5 cm×8 cm; Matrix size=128×512×16; slice thickness=1.5 mm. Analysis of the change in signal intensity in muscle, heart, liver, kidney, and bladder was performed using Matlab. MRI at 7 Tesla was performed on a horizontal Bruker scanner. T1-weighted spin echo sequence with the following parameters was used: field of view (FOV): 3 cm; slice thickness: 1.2 mm; interslice distance: 1.2 mm; TR: 500 ms, TE: 8.1 ms; flip angle: 90°; average: 2; matrix size: 128×128. The images were similarly analyzed as described above.

Water solubility = format: physicochemical; settings: gadofullerene agent

Substance: ZD2-Cy5.5: linear ZD2 peptide with PEG spacer conjugated to Cy5.5 NHS ester (TVRTSAD; also: PEG spacer conjugated to Cy5.5 NHS ester)
- binding and fluorescence of MCF-7 cells (MCF-7 cells): lower ZD2-Cy5.5 binding and weaker fluorescence intensity
- binding to LNCaP cell clusters (LNCaP cell clusters): no peptide binding was detected
- ZD2-Cy5.5 binding in MCF-7 tumour sections (MCF-7 tumours [1]): little
- fluorescence intensity in MDA-MB-231 tumours vs MCF-7 tumours and normal tissues (MDA-MB-231 tumours [2]; 0.5 μmol/kg i.v., 3 hours after injection): greater
- fluorescence signal in the liver and kidneys (MDA-MB-231 tumours [2]; 3 hours after injection): Relatively high fluorescence signal intensity
- Cy5.5 fluorescence of MDA-MB-231 tumour sections (MDA-MB-231 tumours [2]; mouse, in vivo): strong Cy5.5 fluorescence
- binding to PC3 spheroids (PC3 spheroids): able to bind EDB-FN secreted by the PC3 spheroids
- fluorescence of MDA-MB-231 spheres (MDA-MB-231 spheres): strong fluorescence intensity
- fluorescence signal of PC3 tumors vs normal organs [3]: enhanced fluorescence signal
- probe in LNCaP tumor sections [4]: undetectable

Substance: ZD2-Gd3N@C80: ZD2-Cys peptide conjugated to maleimido hydroxylated gadofullerene Gd3N@C80, about one peptide per cage (CTVRTSAD; also: conjugated to maleimido hydroxylated gadofullerene Gd3N@C80, about one peptide per cage)
- signal enhancement and CNR increase in Hs578T vs ZR-75-1 tumours [5]: greater signal enhancement and significantly higher CNR increase
- signal enhancement in MCF-7 tumours (MCF-7 tumours [6]): little enhancement
- transmetallation [7]: < 0.12%
- average radius (Size by TEM and DLS; DLS): 1.40 nm
- average diameter (Size by TEM and DLS; TEM and DLS): 2.8 nm
- signal enhancement and CNR increase in BT549 vs T47D tumours [8]: greater signal enhancement and significantly higher CNR increase
- r1 relaxivity per Gd(III) ion ([9]; 1.5 Tesla): 74.6 mM⁻¹ s⁻¹
- r1 relaxivity per molecule ([9]; 1.5 Tesla): 223.8 mM⁻¹ s⁻¹
- r1 relaxivity per Gd(III) ion ([9]; 7 Tesla): 24.78 mM⁻¹ s⁻¹
- r1 relaxivity relative to clinical Gd(III)-based contrast agents ([9]; vs Gd-DTPA and Gd(HP-DO3A)): ~20 times
- signal enhancement in MDA-MB-231 tumours (MDA-MB-231 tumours [10]; 1.67 μmol/kg i.v., 1.0 Tesla, at least 30 minutes): Significant signal enhancement
- signal enhancement in MDA-MB-231 tumours with co-injection of ZD2 peptide (MDA-MB-231 tumours [10]; 1.67 μmol/kg with 25 μmol/kg ZD2 peptide): significantly reduced the signal enhancement
- increase of contrast-to-noise ratio (CNR) in MDA-MB-231 tumours (MDA-MB-231 tumours [10]; 1.67 μmol/kg, 10-30 min): 39 to 45%
- water solubility (Water solubility): complete water solubility
